Measured values as given in ChEMBL document CHEMBL4342507, “Targeting YAP Degradation by a Novel 1,2,4-Oxadiazole Derivative via Restoration of the Function of the Hippo Pathway” (ACS Med Chem Lett, 2020).
Active and inactive are the calls of the source. The rule behind the calls is not given here.

Legend:
SUM-159-PT [1] = assay: Cytotoxicity against human SUM159 cells assessed as reduction in cell viability at 0.2 to 1.2 uM by MTT assay; type: functional, cell-based; settings: TDE = time-dependent effect
[2] = biological target: T1, Serine/threonine-protein kinase LATS1 (Homo sapiens) (UniProt O95835); assay: Activation of LATS1 in human PC3 cells assessed as increase in YAP phosphorylation at Ser397 at 0.25 to 1.5 uM measured after 24 to 48 hrs by immunoblotting analysis; type: cell-based
T1 sequence (whole entry): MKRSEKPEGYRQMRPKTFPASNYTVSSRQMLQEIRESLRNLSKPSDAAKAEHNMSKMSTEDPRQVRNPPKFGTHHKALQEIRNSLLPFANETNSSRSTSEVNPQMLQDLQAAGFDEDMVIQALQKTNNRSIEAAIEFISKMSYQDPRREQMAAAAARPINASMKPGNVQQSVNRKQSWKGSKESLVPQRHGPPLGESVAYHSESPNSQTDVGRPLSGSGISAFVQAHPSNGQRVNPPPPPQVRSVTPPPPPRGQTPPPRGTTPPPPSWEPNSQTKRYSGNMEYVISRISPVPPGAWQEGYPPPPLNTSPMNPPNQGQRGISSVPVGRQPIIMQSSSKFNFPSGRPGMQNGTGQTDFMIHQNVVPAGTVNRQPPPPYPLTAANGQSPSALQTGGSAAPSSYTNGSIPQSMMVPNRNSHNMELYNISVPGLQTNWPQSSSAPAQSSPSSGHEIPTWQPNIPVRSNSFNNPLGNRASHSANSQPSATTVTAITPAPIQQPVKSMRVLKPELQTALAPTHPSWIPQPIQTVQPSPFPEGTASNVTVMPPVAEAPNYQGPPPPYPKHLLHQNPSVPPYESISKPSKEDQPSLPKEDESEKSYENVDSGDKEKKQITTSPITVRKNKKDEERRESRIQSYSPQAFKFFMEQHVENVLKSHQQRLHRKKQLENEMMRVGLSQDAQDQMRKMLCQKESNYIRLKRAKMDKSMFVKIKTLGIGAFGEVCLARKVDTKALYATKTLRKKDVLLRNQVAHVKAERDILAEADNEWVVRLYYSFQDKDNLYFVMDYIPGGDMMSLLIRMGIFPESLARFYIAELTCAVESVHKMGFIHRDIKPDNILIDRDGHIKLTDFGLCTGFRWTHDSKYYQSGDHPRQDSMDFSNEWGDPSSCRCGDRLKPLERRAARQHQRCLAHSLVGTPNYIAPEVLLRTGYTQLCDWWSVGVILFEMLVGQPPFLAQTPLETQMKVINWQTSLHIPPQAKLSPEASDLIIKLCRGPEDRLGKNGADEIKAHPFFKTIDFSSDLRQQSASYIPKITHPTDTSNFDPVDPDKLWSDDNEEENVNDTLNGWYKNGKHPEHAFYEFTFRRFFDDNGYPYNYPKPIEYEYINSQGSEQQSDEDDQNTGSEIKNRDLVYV

[3] = biological target: T1, Serine/threonine-protein kinase LATS1 (Homo sapiens); assay: Activation of LATS1 in human PC3 cells assessed as increase in phosphorylation at Ser909 residue measured after 24 hrs by Western blot analysis; type: cell-based
SUM-159-PT [4] = assay: Effect on MST2 expression in human SUM159 cells at 0.25 to 1.5 uM measured after 12 hrs by Western blot analysis; type: functional, cell-based
[5] = Acute toxicity in athymic Nude-Foxn1nu BALB/c mouse xenografted with human MDA-MB-231 cells assessed as effect on serum ALT level at 200 mg/kg, po administered once daily via gavage for 14 days; type: organism-based; settings: in vivo, 336 h
[6] = Acute toxicity in athymic Nude-Foxn1nu BALB/c mouse xenografted with human MDA-MB-231 cells assessed as effect on serum total bilirubin level at 200 mg/kg, po administered once daily via gavage for 14 days; type: organism-based; settings: in vivo, 336 h
[7] = biological target: Hepatocyte growth factor receptor (Homo sapiens) (UniProt P08581); assay: Induction of c-MET degradation in human MDA-MB-231 cells assessed as suppression of c-MET expression at 0.1 to 0.8 uM by Western blot analysis; type: cell-based
Hepatocyte growth factor receptor (Homo sapiens), sequence (P08581 whole entry): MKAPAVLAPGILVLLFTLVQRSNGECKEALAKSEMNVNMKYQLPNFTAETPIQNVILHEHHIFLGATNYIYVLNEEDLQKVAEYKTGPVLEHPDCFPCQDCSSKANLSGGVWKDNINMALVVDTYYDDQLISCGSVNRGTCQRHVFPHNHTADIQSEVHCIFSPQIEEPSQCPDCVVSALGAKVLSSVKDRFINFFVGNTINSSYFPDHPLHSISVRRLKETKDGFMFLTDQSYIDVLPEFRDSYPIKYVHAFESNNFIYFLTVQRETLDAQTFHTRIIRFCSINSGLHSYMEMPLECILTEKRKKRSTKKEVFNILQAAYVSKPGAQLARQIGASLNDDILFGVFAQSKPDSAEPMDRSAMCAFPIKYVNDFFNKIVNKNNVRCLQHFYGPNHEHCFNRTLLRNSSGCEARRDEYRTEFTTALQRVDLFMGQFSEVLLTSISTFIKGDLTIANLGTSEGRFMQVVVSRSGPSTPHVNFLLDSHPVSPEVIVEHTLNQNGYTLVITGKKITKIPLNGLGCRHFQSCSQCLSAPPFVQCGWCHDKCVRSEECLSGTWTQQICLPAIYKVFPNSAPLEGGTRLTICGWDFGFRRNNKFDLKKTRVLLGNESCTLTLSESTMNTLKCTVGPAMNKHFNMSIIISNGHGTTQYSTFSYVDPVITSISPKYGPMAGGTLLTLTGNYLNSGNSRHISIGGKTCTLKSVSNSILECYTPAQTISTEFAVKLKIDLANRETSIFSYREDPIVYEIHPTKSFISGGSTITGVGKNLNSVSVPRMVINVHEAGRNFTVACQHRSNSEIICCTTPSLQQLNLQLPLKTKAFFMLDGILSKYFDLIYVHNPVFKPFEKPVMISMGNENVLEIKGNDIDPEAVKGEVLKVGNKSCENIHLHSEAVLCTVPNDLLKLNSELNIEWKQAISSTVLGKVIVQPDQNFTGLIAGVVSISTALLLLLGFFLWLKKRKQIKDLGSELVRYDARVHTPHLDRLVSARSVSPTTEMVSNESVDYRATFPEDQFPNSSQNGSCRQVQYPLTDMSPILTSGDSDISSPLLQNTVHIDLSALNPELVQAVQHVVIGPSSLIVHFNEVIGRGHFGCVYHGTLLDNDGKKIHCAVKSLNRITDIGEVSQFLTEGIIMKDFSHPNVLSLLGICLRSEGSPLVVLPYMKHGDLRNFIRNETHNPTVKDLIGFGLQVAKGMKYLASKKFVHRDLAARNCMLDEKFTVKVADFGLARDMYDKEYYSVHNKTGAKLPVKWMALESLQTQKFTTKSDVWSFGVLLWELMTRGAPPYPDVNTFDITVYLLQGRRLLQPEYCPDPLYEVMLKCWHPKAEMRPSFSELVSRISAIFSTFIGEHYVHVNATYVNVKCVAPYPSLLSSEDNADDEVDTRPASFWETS

Compound: CC(=O)Nc1ccc(NC(=O)Nc2cccc(-c3nc(-c4ccc(NC(=O)c5cccnc5)cc4Cl)no3)c2)cc1C(F)(F)F
- Activity (SUM-159-PT [1]): Tde
- Activity [2]: inactive
- Activity [3]: Dose-dependent effect
- Activity (SUM-159-PT [4]): inactive
- Activity [5]: Non-Toxic
- Activity [6]: Non-Toxic
- Activity [7]: inactive
